We go through 2 compounds from US20120142668A1, “CATHEPSIN C INHIBITORS” (priority 2009, published 2012).

The experiment addresses recombinant human cathepsin C (Homo sapiens, UniProt P53634). Put plainly: Recombinant Cathepsin C In Vitro Assay (cleavage of fluorogenic substrate H-Ser-Tyr-AMC). The following applies: 24 pM enzyme, pH 5.5, one hour preincubation with compound at room temperature, read-out: concentration at which 50% cathepsin C inhibition is exhibited. Type of experiment: biochemical. How it is done:
C. Recombinant Cathepsin C In Vitro Assay:
The activity of recombinant human cathepsin C was measured by the cleavage of a fluorogenic substrate, H-Ser-Tyr-AMC. Briefly, 24 pM cathepsin C was incubated with test compound (e.g. inhibitor) in a buffer consisting of 50 mM sodium acetate, 30 mM sodium chloride, 1 mM CHAPS, 1 mM dithiothreitol, 1 mM EDTA, pH 5.5 at room temperature for one hour. After one hour of incubating test compound with cathepsin C, the activity assay was initiated by the addition of an equal volume of 0.010 mM H-Ser-Tyr-AMC in the same buffer. After one hour, the activity assay was stopped by the addition of ⅕ volume of 100 μM E-64. The reaction product was measured on a fluorescence reader set at an excitation wavelength of 360 nm and emission wavelength of 460 nm and equipped with a 400 nm dichroic mirror.

Structures can show the parent of a compound that is named as a salt.

Chain of recombinant human cathepsin C (P53634 25-463): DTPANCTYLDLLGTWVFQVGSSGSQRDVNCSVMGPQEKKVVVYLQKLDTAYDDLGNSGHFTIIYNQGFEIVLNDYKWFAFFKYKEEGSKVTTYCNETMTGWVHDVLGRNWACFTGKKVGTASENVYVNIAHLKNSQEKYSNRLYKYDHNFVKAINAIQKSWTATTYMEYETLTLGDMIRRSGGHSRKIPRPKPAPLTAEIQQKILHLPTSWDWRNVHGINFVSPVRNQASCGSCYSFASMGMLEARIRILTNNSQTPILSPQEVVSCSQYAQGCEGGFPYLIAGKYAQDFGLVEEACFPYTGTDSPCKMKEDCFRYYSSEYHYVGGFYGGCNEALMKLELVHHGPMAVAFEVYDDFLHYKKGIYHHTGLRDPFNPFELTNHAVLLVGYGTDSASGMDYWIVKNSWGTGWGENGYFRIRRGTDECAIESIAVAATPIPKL

In the case of `C[C@H](N)C(=O)N[C@H](/C=C/C(=O)NCc1ccccc1)CCc1ccccc1` [Example 1, (2E,4S)-4-(L-alanylamino)-6-phenyl-N-(phenylmethyl)-2-hexenamide hydrochloride], the IC50 was about 100 nM.
As for `C[C@H](N)C(=O)N[C@H](/C=C/C(=O)N(C)C)CCc1ccccc1` [Example 3, (2E,4S)-4-(L-alanylamino)-N,N-dimethyl-6-phenyl-2-hexenamide hydrochloride], the figure is about 1000 nM.
